From paper PMC4738305, “Metabolism and Disposition of Aditoprim in Swine, Broilers, Carp and Rats” (Scientific Reports, 2016)
Read-outs that look alike come from different tables or passages of the source. Values belong to the molecule of their own block, whether it stands above or below them.

What was measured:
[1] = Concentration and elimination of ADP and its metabolites in liver, kidney, muscle, fat/skin after oral ^3H-ADP for 7 d; assay type: in vivo, broilers; conditions: for concentration at 0.25 d / concentration at 1 d / concentration at 3 d: oral; for half-life: po
Protocol: (§1) A total of 36 animals from each species (swine n = 24) were randomly assigned to six equal treatment groups and administered a single daily dose of ^3 H-ADP at 5 mg/kg b. w. (0.1 Ci/g) through oral gavage for 7 consecutive days. All the animals were housed on the basis of their group in the cages or aquaria throughout the whole study period. A group of animals was slaughtered through exsanguination under diethyl ether inhalation of anesthesia in the period of 6 h, 1, 3, 7, 14, and 21 d after the administration. The blood samples were immediately collected into the heparinized tubes and was centrifuged at 1920 × g at 4 °C for 10 min to obtain the plasma. The tissues from the heart, liver, spleen, lung, kidney, craw (broilers), stomach, intestine, fat, skin, muscle, thymus, pancreas, bile, bladder, hair (scale for carp), genital gland, adrenal glands, swim bladder (carp), brain, lymph, and bursa (broilers) were carefully excised and collected. The tissues were thoroughly rinsed with the deionized water to remove the residuary blood, blotted to dryness, and finally to perform the homogenization. In order to avoid cross-contamination the dissecting instruments were washed during the tissue procurements. The blank tissues were collected in order to provide control matrices. The total radioactivity levels in each sample were determined through LSC. The samples extracted from the plasma, bile, and tissues of the liver, kidney, muscle, and fat/skin were analyzed through LC/MS-IT-TOF and v. ARC radiometric detection for metabolite profiling. The blank samples were used as control to determine the background radioactivity or the endogenous nondrug-related ions observed within respective matrices or their extracts.
(§2) The feces and tissues (2 g) were diluted with a mixture of methanol and chloroform (1:3, v:v; 2 mL/g homogenate). This procedure was carried out in a fume hood for the safety aspects. The pH value was adjusted to 9.0 with NH4OH. The mixture was vortexed and sonicated for 5 min and 10 min, respectively, and finally the samples were centrifuged at 7690 × g for 10 min. The supernatant was aspirated and then transferred into a new centrifuge tube. The obtained pellet was again subjected to the same process of vortex, ultrasonication, extraction, and centrifugation. The combined supernatant was concentrated under a stream of nitrogen in a water bath at 40 °C. The residue was reconstituted with 0.3 mL of methanol–water (1:9, v:v) before the injection into the LC-v. ARC/MS-IT-TOF system for analysis.
(§3) ADP and its metabolites in the prepared samples were determined with a v. ARC radiometric detector and a hybrid IT/TOF mass spectrometer connected to the HPLC system (Shimadzu Corp., Kyoto, Japan). The LC system was equipped with a solvent delivery pump (LC-20AD), an auto-sampler (SIL-20AC), a degasser (DGU-20 A 3), a photodiode array detector (SPD-M20A), a communication base module (CBM-20 A), and a column oven (CTO-20AC). The chromatographic separation was achieved by using an Agilent extend-C18 column (2.1 mm × 150 mm, 5 μm) with a gradient mobile phase of A (0.01% ammonia and 5 mM ammonium acetate in water) and B (methanol) at a flow rate of 0.2 mL/min. The column temperature was maintained at 35 °C. Various HPLC methods were performed because of the large number of different metabolites to be analyzed. For the porcine sample, method 1 started at 5% B and increased to 20% B over 35 min, then to 55% B by 60 min, followed by re-equilibration for another 10 min. For the remaining samples, method 2 started at 10% B and increased to 60% B over 30 min, subsequently was maintained at 60% B for an additional 10 min, and then changed to 90% B over 2 min and maintained for 2 min. Afterwards, a re-equilibration step (decreased to 10% B over 1 min and maintained at 10% B for additional 9 min) was followed. For each matrix, more than 98% of the radioactivity injected into the column was eluted during the running time of the gradient program. […]

[2] = as above; assay type: in vivo, swine; conditions: for half-life: pig, po
Protocol: as §1, §2, §3

[3] = as above; assay type: in vivo, rats; conditions: for half-life: po; for concentration at 0.25 d / concentration at 1 d / concentration at 3 d / concentration at 7 d: oral
Protocol: as §1, §2, §3

[4] = broiler chicken, kidney, 5 mg/kg b.w.
[5] = broiler chicken, muscle, 5 mg/kg b.w.
[6] = broilers, muscle, 5 mg/kg b. w.
[7] = swine kidney, after 5 mg/kg b. w. for 7 days, read-out: t1/2 of the individual compound (converted)
[8] = swine liver, after 5 mg/kg b. w. for 7 days, read-out: t1/2 of the individual compound (converted)
[9] = swine, kidney, oral, 5 mg/kg b.w.
[10] = swine, liver, oral, 5 mg/kg b.w.
[11] = swine, muscle, oral, 5 mg/kg b.w.
[12] = rat kidney, after 5 mg/kg b. w. for 7 days, read-out: t1/2 of the individual compound (converted)
[13] = rat liver, after 5 mg/kg b. w. for 7 days, read-out: t1/2 of the individual compound (converted)

- concentration at 0.25 d [1, 4]: 6060 ± 970 ng/g
- concentration at 1 d [1, 4]: 2920 ± 530 ng/g
- concentration at 3 d [1, 4]: 370 ± 100 ng/g
- concentration at 0.25 d [1, 5]: 200 ± 80 ng/g
- concentration at 0.25 d ([1]; broilers, fat, 5 mg/kg b. w.): 300 ± 100 ng/g
- concentration at 1 d ([1]; broilers, fat, 5 mg/kg b. w.): 60 ± 20 ng/g
- concentration at 0.25 d ([1]; broilers, liver, 5 mg/kg b. w.): 3090 ± 680 ng/g
- concentration at 1 d ([1]; broilers, liver, 5 mg/kg b. w.): 740 ± 120 ng/g
- concentration at 3 d ([1]; broilers, liver, 5 mg/kg b. w.): 370 ± 100 ng/g
- concentration at 1 d [1, 6]: 90 ± 20 ng/g
- half-life ([1]; broiler kidney, after 5 mg/kg b. w. for 7 days, read-out: t1/2 of the individual compound (converted)): 16.3 h
- half-life ([1]; broiler liver, after 5 mg/kg b. w. for 7 days, read-out: t1/2 of the individual compound (converted)): 25.2 h
- half-life ([1]; tissues (liver, kidney, muscle, fat/skin), 5 mg/kg, broilers tissues, read-out: t1/2 of the individual compound, range over tissues): 16.3 to 25.2 h
- half-life [2, 7]: 21.8 h
- half-life [2, 8]: 25 h
- half-life ([2]; swine muscle, after 5 mg/kg b. w. for 7 days, read-out: t1/2 of the individual compound (converted)): 17.5 h
- half-life ([2]; tissues (liver, kidney, muscle, fat/skin), 5 mg/kg, swine tissues, read-out: t1/2 of the individual compound, range over tissues): 17.5 to 25 h
- concentration at 0.25 d ([2]; swine, fat, oral, 5 mg/kg b.w.): 300 ± 70 ng/g
- concentration at 1 d ([2]; swine, fat, oral, 5 mg/kg b.w.): 60 ± 10 ng/g
- concentration at 0.25 d [2, 9]: 15400 ± 5300 ng/g
- concentration at 1 d [2, 9]: 3430 ± 1250 ng/g
- concentration at 3 d [2, 9]: 160 ± 40 ng/g
- concentration at 7 d [2, 9]: 20 ng/g
- concentration at 0.25 d [2, 10]: 4620 ± 850 ng/g
- concentration at 1 d [2, 10]: 1650 ± 330 ng/g
- concentration at 3 d [2, 10]: 640 ± 110 ng/g
- concentration at 0.25 d [2, 11]: 850 ± 250 ng/g
- concentration at 1 d [2, 11]: 150 ± 40 ng/g
- concentration at 3 d [2, 11]: 50 ± 10 ng/g
- half-life [3, 12]: 50.6 h
- half-life [3, 13]: 64.6 h
- concentration at 0.25 d ([3]; rat, fat, 5 mg/kg b. w.): 70 ± 20 ng/g
- concentration at 0.25 d ([3]; rat, kidney, 5 mg/kg b.w.): 2650 ± 970 ng/g
- concentration at 1 d ([3]; rat, kidney, 5 mg/kg b.w.): 320 ± 120 ng/g
- concentration at 3 d ([3]; rat, kidney, 5 mg/kg b.w.): 120 ± 20 ng/g
- concentration at 7 d ([3]; rat, kidney, 5 mg/kg b.w.): 40 ± 10 ng/g
- concentration at 0.25 d ([3]; rat, liver, 5 mg/kg b. w.): 1940 ± 580 ng/g
- concentration at 1 d ([3]; rat, liver, 5 mg/kg b. w.): 390 ± 90 ng/g
- concentration at 3 d ([3]; rat, liver, 5 mg/kg b. w.): 180 ± 40 ng/g
- concentration at 7 d ([3]; rat, liver, 5 mg/kg b. w.): 80 ± 10 ng/g
- concentration at 0.25 d ([3]; rat, muscle, 5 mg/kg b.w.): 250 ± 100 ng/g
- concentration at 1 d ([3]; rat, muscle, 5 mg/kg b.w.): 140 ± 30 ng/g
- half-life ([3]; rat, tissues (liver, kidney, muscle, fat/skin), 5 mg/kg, rats tissues, read-out: t1/2 of the individual compound, range over tissues): 50.6 to 64.6 h
SMILES: CNc1c(OC)cc(Cc2cnc(N)nc2N)cc1OC [A1, N-monodesmethyl-ADP]

- concentration at 0.25 d [1, 4]: 1200 ± 80 ng/g
- concentration at 1 d [1, 4]: 550 ± 140 ng/g
- concentration at 0.25 d [1, 5]: 60 ± 20 ng/g
- concentration at 0.25 d ([1]; broilers, fat, 5 mg/kg b. w.): 30 ± 10 ng/g
- concentration at 0.25 d ([1]; broilers, liver, 5 mg/kg b. w.): 380 ± 50 ng/g
- concentration at 1 d ([1]; broilers, liver, 5 mg/kg b. w.): 190 ± 50 ng/g
- concentration at 1 d [1, 6]: 10 ng/g
- half-life ([2]; 5 mg/kg, kidney and liver of swine and rat, read-out: t1/2 of the individual compound, range over tissues): 10.1 to 38.6 h
- half-life [2, 7]: 10.1 h
- half-life [2, 8]: 23.8 h
- concentration at 0.25 d ([2]; swine, fat, oral, 5 mg/kg b.w.): 70 ± 10 ng/g
- concentration at 0.25 d [2, 9]: 6360 ± 1040 ng/g
- concentration at 1 d [2, 9]: 1300 ± 400 ng/g
- concentration at 3 d [2, 9]: 20 ± 10 ng/g
- concentration at 0.25 d [2, 10]: 2440 ± 480 ng/g
- concentration at 1 d [2, 10]: 840 ± 110 ng/g
- concentration at 3 d [2, 10]: 310 ± 80 ng/g
- concentration at 0.25 d [2, 11]: 160 ± 40 ng/g
- concentration at 1 d [2, 11]: 50 ± 10 ng/g
- half-life [3, 12]: 16.8 h
- half-life [3, 13]: 38.6 h
- concentration at 0.25 d ([3]; rat, kidney, 5 mg/kg b.w.): 370 ± 130 ng/g
- concentration at 1 d ([3]; rat, kidney, 5 mg/kg b.w.): 120 ± 30 ng/g
- concentration at 3 d ([3]; rat, kidney, 5 mg/kg b.w.): 20 ng/g
- concentration at 0.25 d ([3]; rat, liver, 5 mg/kg b. w.): 230 ± 60 ng/g
- concentration at 1 d ([3]; rat, liver, 5 mg/kg b. w.): 120 ± 20 ng/g
- concentration at 3 d ([3]; rat, liver, 5 mg/kg b. w.): 60 ± 20 ng/g
- concentration at 0.25 d ([3]; rat, muscle, 5 mg/kg b.w.): 40 ± 10 ng/g
SMILES: COc1cc(Cc2cnc(N)nc2N)cc(OC)c1N [A2, N-didesmethyl-ADP]
